Measurements reported in article PMC2424174, “Suppression of Tumor Growth and Angiogenesis by a Specific Antagonist of the Cell-Surface Expressed Nucleolin” (PLoS ONE, 2008).

Experiments:
[1] = test system: MDA-MB-231 cells; test: HB-19 entry in MDA-MB-231 cells, immunofluorescence; type: cell-based, human; conditions: 5 µM HB-19/Btn, 1 hour
[2] = test system: nucleolin; test: Nucleolin expression in HB-19 treated MDA-MB-231 cells (immunoblot / immunofluorescence); type: cell-based, human; conditions: for reduction of surface/cytoplasmic nucleolin: 10 µM HB-19, 37°C, vs untreated, immunoblot band intensity
Method: Figure 2 HB-19 binds nucleolin expressed on the surface of tumor cells and causes reduction of cytoplasmic/surface but not nuclear nucleolin. (A) HB-19/Btn forms a stable complex with nucleolin expressed on the surface of cells. MDA-MB-231 cells were incubated (45 min, 20°C) with 0, 1, 2, 4, 8 and 12 µM of HB-19/Btn before preparation of surface/cytoplasmic (i.e., nucleus-free) and nuclear extracts, [28]. Samples of surface nucleolin (purified using surface/cytoplasmic extracts from 2×10^7 cells) and crude surface/cytoplasmic and nuclear extracts (from 2×10^6 cells) were analyzed by immunoblotting for the detection of nucleolin using mAb D3. (B) Specific reduction of surface/cytoplasmic nucleolin in HB-19 treated cells. MDA-MB-231 cells were cultured (at 37°C) with 10 µM of HB-19 for 4, 24 and 48 hours before preparation of cytoplasmic and nuclear extracts. Material from 2×10^6 cells (Untreated or HB-19 treated cells as indicated − or + signs, respectively) was analyzed by immunoblotting for the detection of nucleolin. Sections of the gel at the position of the nucleolin bands are presented. […] The intensity of nucleolin protein bands quantified by using the NIH image software indicated 75% and 93% reduction of surface/cytoplasmic nucleolin in HB-19 treated cells at 24 and 48 hours, respectively, compared to the corresponding untreated cells. (C) HB-19 binds the cell surface and enters in the cytoplasm but not the nucleus. MDA-MB-231 cells were incubated at 20°C (for HB-19 Binding) or 37°C (for HB-19 Entry) with 5 µM of HB-19/Btn for 1 hour before fixation in PFA or PFA-Triton, respectively. Fixed cells were successively incubated with rabbit anti-biotin and goat Texas Red-conjugated anti-rabbit IgG and the nuclei were colored with DAPI. Scans corresponding to the cross-section of cells are shown, each with or without the DAPI. (D) Nucleolar nucleolin is not affected in HB-19 treated cells. MDA-MB-231 cells cultured in the absence (Control Cells) or presence of 10 µM of HB-19 for 48 hours (HB-19 Treated Cells) were fixed in PFA-Triton and processed for fluorescence microscopy.
Cells washed in phosphate-buffered saline (PBS) were lysed in buffer E (20 mM Tris–HCl, pH 7.6, 150 mM NaCl, 5 mM MgCl2, 0.2 mM phenylmethylsulfonyl fluoride (PMSF), 5 mM β-mercaptoethanol, aprotinin (1000 U/ml) and 0.5% Triton X-100) and the nuclei were pelleted by centrifugation (1000g for 5 min). […] Aliquots of crude cell extracts were diluted in 2 fold concentrated electrophoresis sample buffer containing SDS, heated and analyzed by SDS- polyacrylamide gel electrophoresis (PAGE). […]

[3] = test system: MDA-MB-231 tumor-cell xenografts; test: MDA-MB-231 xenograft in nude mice; type: in vivo, human
Method: Figure 8 HB-19 inhibits tumor growth in the nude mice. (A) HB-19 inhibits the growth of MDA-MB-231 tumor-cell xenografts. Cells (2×10^6) were injected subcutaneously into the right flank of female nude mice. Two weeks later, mice with a palpable tumor of approximately 40 mm^3 in volume were randomly separated into three groups (n = 5) and were given peritumoral injections 3 times/week of 0.1 ml PBS alone (Control), HB-19 (5 mg/kg), or Tamoxifen (Tmx) 10 mg/kg) for 6 weeks. (B) HB-19 inhibits the growth of MDA-MB-435 tumor-cell xenografts. Cells (1×10^6) were injected in the mammary fat pad of female nude mice. Two weeks later, mice with a palpable tumor were randomly separated into three groups (n = 10) and were given intraperitoneal injections 3 times/week of 0.1 ml PBS alone (Control), HB-19 (5 mg/kg), or 5-fluouracil (5-FU, 40 mg/kg) for 8 weeks. At the end of each experiment (in A and B), mice were sacrificed and the tumors were excised and weighed. The results are presented as the mean weight ±standard deviation (±S.D.) obtained from the number of mice in each group. (C, D) Inhibition of tumor development in mice treated by intraperitoneal (i.p.) and subcutaneous (s.c.) administration of HB-19. MDA-MB-231 tumor bearing mice in three groups (n = 10) were treated with HB-19 (10 mg/kg) by i.p. or s.c. injections, 3 times/week for 28 days. […] Statistical significance: *p<0.05, **p<0.01, ***p<0.001.

[4] = HB-19 10 mg/kg, intraperitoneal, 3 times/week, 28 days, n = 10

“pseudo-tripeptide Lysψ(CH2N)-Pro-Arg coupled to a template (H2NLys-Lys-Lys-Gly-Pro-Lys-Glu-Lys-AhxCONH2) [HB-19, pseudopeptide presenting pentavalently the pseudo-tripeptide Lysψ(CH2N)-Pro-Arg coupled to a template]” was tested, and the “internalization and subcellular localization” value ([1]; 37°C) was “internalized and is concentrated in the cytoplasm without translocation into the nucleus”, the “internalization at 20°C” value ([1]; 20°C) was “remains attached to the cell surface without entering the cytoplasm” and the “level and nucleolar localization of nuclear nucleolin” value ([2]; 10 µM HB-19, 24–48 hours) was “without apparent modification”. The “reduction of surface/cytoplasmic nucleolin” value ([2]; 24 hours) was 75%, the “reduction of surface/cytoplasmic nucleolin” value ([2]; 48 hours) was 93% and the “expression of other cytoplasmic proteins” value ([2]; 10 µM HB-19, stained gel) was “not affected”. For the same substance, the “antitumoral activity compared with tamoxifen” value ([3]; HB-19 5 mg/kg vs tamoxifen 10 mg/kg, peritumoral) was “superior to the conventional cancer drug tamoxifen”, the tumor elimination ([3]; HB-19 5 mg/kg, peritumoral, 3 times/week, 6 weeks) was “in some cases eliminated measurable tumors” and the “inhibition of tumor growth” value ([3]; HB-19 5 mg/kg, peritumoral, 3 times/week, 6 weeks, n = 5) was over 95%. The “complete eradication of the tumor” value [3, 4] was “Complete eradication of the tumor was observed in several mice”, the “inhibition in tumor volume” value [3, 4] was “more than 95%” and the “inhibition in tumor volume” value ([3]; HB-19 10 mg/kg, subcutaneous, 3 times/week, 28 days, n = 10) was “more than 95%”.
